Assay results published in PMC11528066, “Noninvasive Monitoring of Programmed Death-Ligand 2 Expression with Positron Emission Tomography using ^68Ga-labeled Peptide Antagonist in Preclinical and Exploratory Human Studies” (Research, 2024).
Peptide text beside a SMILES is read from it. * marks the point of attachment. NOTA = O=C(O)CN1CCN(CC(=O)O)CCN(CC(=O)*)CC1; AEEEA = NCCOCCOCCOCC(=O)O

Test system: A549-PD-L2 xenograft tumor models
Assay: Biodistribution (γ-counter)
Assay type: in vivo, BALB/C nude mice
Settings: mean ± SD, n = 3
Method: Micro-PET imaging was conducted using an Inveon PET scanner (Siemens, Germany). Dynamic PET examine were acquired over the first 60 min following the simultaneous injection of 7.4 to 9.25 MBq (200 to 250 μCi) of [^68Ga]Ga-HN11-1 and [^68Ga]Ga-HN11-2. After reconstructing the images and delineating the regions of interest (ROIs), time-radioactivity curves were plotted to obtain the Tumor/Muscle (T/M) ratios. %ID/g represents the percentage of the injected dose of the radiotracer that accumulates in a specific tissue per gram of tissue weight. For the biodistribution study, the xenograft models received an intravenous injection of 3.7 to 5.5 MBq (100 to 150 μCi) of [^68Ga]Ga-HN11-1. After the designated period (10, 30, 60, and 90 min), the mice were euthanized, and important tissues and organs were dissected and collected. The samples were counted using the γ-counter for determining the %ID/g, presented as mean ± standard deviation (SD).
A549 cell lines were provided by the China Center for Type Culture Collection (CCTCC) and cultured in RPMI-1640 medium supplemented with 10 % fetal bovine serum and 100 U/mL penicillin-streptomycin. The lentivirus system was implemented to introduce PD-L2 (PDCD1LG2) over-expressed cDNA into the A549 cells. The viral vectors were produced in 293T cells and co-transfected with the psAX2, pMD2G and PD-L2 plasmids. A549 cells transduced with the vectors were selectively grown in 1.6 μg/mL puromycin. Transfection efficiency was identified by WB and real-time quantitative PCR. All the cells were cultured in an incubator at 37° C with 5 % CO2 atmosphere. A549 and A549-PD-L2 cells (5 × 10^6, 200 μL)were subcutaneously implanted into the right shoulder of BALB/C nude mice (male, 4-6 weeks), respectively. When the tumors reached to 5 - 8 mm in diameter, the mice were subjected to in vivo and ex vivo studies. All the mice were purchased from the Laboratory Animal Center of Central South University.

Structure (SMILES): CC[C@H](C)[C@H](NC(=O)[C@H](CCCNC(=N)N)NC(=O)CNC(=O)[C@H](CCC(=O)O)NC(=O)[C@H](CC(N)=O)NC(=O)[C@H](Cc1ccc(O)cc1)NC(=O)[C@H](CCCNC(=N)N)NC(=O)[C@H](Cc1ccc(O)cc1)NC(=O)[C@H](Cc1c[nH]cn1)NC(=O)COCCOCCOCCNC(=O)CN1CCN(CC(=O)O)CCN(CC(=O)O)CC1)C(=O)N[C@@H](CCCNC(=N)N)C(=O)N[C@@H](CC(N)=O)C(=O)O [[^68Ga]Ga-HN11-1, metal not drawn] ({NOTA-AEEEA}-HYRYNEGRIRN-OH)
- Blood uptake (10 min p.i.): 2.83 ± 0.21 %ID/g
- Heart uptake (10 min p.i.): 1.41 ± 0.10 %ID/g
- Liver uptake (10 min p.i.): 2.90 ± 0.47 %ID/g
- Lung uptake (10 min p.i.): 1.56 ± 0.06 %ID/g
- Spleen uptake (10 min p.i.): 1.91 ± 0.14 %ID/g
- Stomach uptake (10 min p.i.): 1.27 ± 0.14 %ID/g
- Blood uptake (30 min p.i.): 1.34 ± 0.16 %ID/g
- Heart uptake (30 min p.i.): 0.85 ± 0.10 %ID/g
- Kidney uptake (30 min p.i.): 66.15 ± 0.73 %ID/g
- Liver uptake (30 min p.i.): 1.44 ± 0.31 %ID/g
- Lung uptake (30 min p.i.): 0.96 ± 0.09 %ID/g
- Spleen uptake (30 min p.i.): 0.86 ± 0.16 %ID/g
- Stomach uptake (30 min p.i.): 0.48 ± 0.04 %ID/g
- Blood uptake (60 min HN11-1 Block): 0.33 ± 0.02 %ID/g
- Heart uptake (60 min HN11-1 Block): 0.18 ± 0.02 %ID/g
- Kidney uptake (60 min HN11-1 Block): 76.77 ± 7.10 %ID/g
- Liver uptake (60 min HN11-1 Block): 1.20 ± 0.32 %ID/g
- Lung uptake (60 min HN11-1 Block): 0.92 ± 0.04 %ID/g
- Spleen uptake (60 min HN11-1 Block): 0.96 ± 0.17 %ID/g
- Stomach uptake (60 min HN11-1 Block): 0.26 ± 0.05 %ID/g
- Blood uptake (60 min p.i.): 0.34 ± 0.01 %ID/g
- Heart uptake (60 min p.i.): 0.18 ± 0.02 %ID/g
- Kidney uptake (60 min p.i.): 74.56 ± 3.78 %ID/g
- Liver uptake (60 min p.i.): 0.91 ± 0.14 %ID/g
- Lung uptake (60 min p.i.): 0.74 ± 0.04 %ID/g
- Spleen uptake (60 min p.i.): 0.51 ± 0.17 %ID/g
- Stomach uptake (60 min p.i.): 0.19 ± 0.03 %ID/g
- Blood uptake (90 min p.i.): 0.16 ± 0.03 %ID/g
- Heart uptake (90 min p.i.): 0.13 ± 0.01 %ID/g
- Kidney uptake (90 min p.i.): 87.01 ± 3.40 %ID/g
- Liver uptake (90 min p.i.): 0.28 ± 0.17 %ID/g
- Lung uptake (90 min p.i.): 0.40 ± 0.11 %ID/g
- Spleen uptake (90 min p.i.): 0.21 ± 0.04 %ID/g
- Stomach uptake (90 min p.i.): 0.20 ± 0.02 %ID/g
